#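 Protocol summary: plate cells (96-well), add compound at 5 concentrations, incubate 48 h, interpolate endpoints linearly. Here, GI50 denotes the concentration required for 50% inhibition of growth.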 The source made the active and inactive calls. Rule as the data show it: active = GI50 up to about 1.1 µM and inactive = higher.
# Key:
# Test in all cases: NCI anticancer screen, dose series, 48 h
# HCT-15 = test system: HCT-15
# SNB-19 = test system: SNB-19
# OVCAR-4 = test system: OVCAR-4
# UACC-257 = test system: UACC-257
# U-251 = test system: U-251
# COLO 205 = test system: COLO 205
# SK-MEL-28 = test system: SK-MEL-28
# HL-60 = test system: HL-60
# PC-3 = test system: PC-3
# HOP-92 = test system: HOP-92
# OVCAR-8 = test system: OVCAR-8
# ACHN = test system: ACHN
# SK-MEL-5 = test system: SK-MEL-5
# OVCAR-5 = test system: OVCAR-5
# SK-OV-3 = test system: SK-OV-3
# UACC-62 = test system: UACC-62
# CAKI-1 = test system: CAKI-1
# KM12 = test system: KM12
# RPMI-8226 = test system: RPMI-8226
# SK-MEL-2 = test system: SK-MEL-2
Structure (SMILES),GI50 (HCT-15),GI50 (SNB-19),GI50 (OVCAR-4),GI50 (UACC-257),GI50 (U-251),GI50 (COLO 205),GI50 (SK-MEL-28),GI50 (HL-60),GI50 (PC-3),GI50 (HOP-92),GI50 (OVCAR-8),GI50 (ACHN),GI50 (SK-MEL-5),GI50 (OVCAR-5),GI50 (SK-OV-3),GI50 (UACC-62),GI50 (CAKI-1),GI50 (KM12),GI50 (RPMI-8226),GI50 (SK-MEL-2)
Fc1ccc(C(OCCN2CC3CC2CN3CCCc2ccccc2)c2ccc(F)cc2)cc1 (stereo not given),4.63 µM,13.3 µM (inactive),8.95 µM (inactive),3.69 µM (inactive),6.71 µM (inactive),1.68 µM (inactive),2.96 µM (inactive),2.71 µM (inactive),5.98 µM (inactive),11.9 µM (inactive),3.23 µM (inactive),11.5 µM (inactive),1.84 µM (inactive),11.3 µM (inactive),15 µM (inactive),11.1 µM (inactive),10.1 µM (inactive),4.85 µM (inactive),2.88 µM (inactive),9.95 µM (inactive)
COc1cc2cc(C(=O)N3C[C@H](CCl)c4c3cc(N)c3ccccc43)[nH]c2c(OC)c1OC,0.005 µM,0.713 µM (active),> 10 µM (inactive),1.6 µM (inactive),0.279 µM (active),0.0173 µM (active),0.0172 µM (active),0.0586 µM (active),0.0507 µM (active),0.0489 µM (active),0.447 µM (active),< 0.005 µM (active),< 0.005 µM (active),0.0906 µM (active),0.22 µM (active),2.44 µM (inactive),< 0.005 µM (active),0.00187 µM (active),0.0275 µM (active),2.05 µM (inactive)
CC[C@@]1(O)C(=O)OCc2c1cc1n(c2=O)Cc2c-1nc1ccc(O)cc1c2[Si](C)(C)C(C)(C)C [AR-67],0.122 µM,< 0.01 µM (active),0.0282 µM (active),< 0.0149 µM (active),< 0.01 µM (active),0.031 µM (active),0.0317 µM (active),< 0.01 µM (active),< 0.0208 µM (active),0.0132 µM (active),< 0.0123 µM (active),< 0.01 µM (active),< 0.01 µM (active),0.139 µM (active),0.557 µM (active),< 0.01 µM (active),< 0.01 µM (active),0.024 µM (active),< 0.0152 µM (active),0.125 µM (active)
CC(C)=CCc1c2c(c3occ(-c4ccc(O)cc4)c(=O)c3c1O)CC(C(C)(C)O)O2 (stereo not given) [SENEGALENSIN],13.1 µM,16.4 µM (inactive),12.9 µM (inactive),15.7 µM (inactive),13.2 µM (inactive),14.6 µM (inactive),24.3 µM (inactive),12.4 µM (inactive),13.8 µM (inactive),18 µM (inactive),17 µM (inactive),14.8 µM (inactive),15.2 µM (inactive),19.1 µM (inactive),18.8 µM (inactive),16.4 µM (inactive),18.8 µM (inactive),16.8 µM (inactive),9.77 µM (inactive),14.6 µM (inactive)
CCCC(=O)OCC(COC(=O)CCC)OC(=O)CCC [TRIBUTYRIN],> 100 µM,> 100 µM (inactive),> 100 µM (inactive),42.2 µM (inactive),53 µM (inactive),55.6 µM (inactive),66.1 µM (inactive),33.3 µM (inactive),99.3 µM (inactive),> 100 µM (inactive),62.4 µM (inactive),96.2 µM (inactive),41.8 µM (inactive),57.3 µM (inactive),61.2 µM (inactive),58.3 µM (inactive),49.1 µM (inactive),> 100 µM (inactive),17.1 µM (inactive),24.2 µM (inactive)

# Source: ChEMBL document CHEMBL1201862, “PubChem BioAssay data set” (2004)
